According to US20220135622A1, “ANTIBACTERIAL PEPTIDES AND METHODS OF USE” (priority 2019, published 2022):
Entries after “also recorded” stand apart in the source; their conditions may differ. Where two headings read alike, the source gives them in different places. Square brackets hold non-standard residues; d marks the D form. Peptide text beside a SMILES is read from it. Dap = NC[C@H](N)C(=O)O

Assays:
E. coli BW25113 = assay type: cell-based, Escherichia coli; conditions: for MIC: Table 2
Outline: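 Growth inhibition: log-phase cells (OD600 ~0.001), peptides in 2-fold series up to 400–800 μM in MHB II, EDTA 0.5 mM (E. coli) or 0.125 mM (USA300), 4 h at 37 °C, ATP luminescence readout. MICs: inoculum at OD600 ~0.0002, with or without EDTA, 20 h at 37 °C, OD600 endpoint.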

E. coli mcr-1 = assay type: cell-based, Escherichia coli; conditions: Table 5; colistin^R
Outline: (§1)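 MHB II cation-adjusted, peptides 2-fold series (top 400-800 μM final), inoculum OD600 ~0.0002, EDTA 0.5 mM (E. coli) / 0.125 mM (USA300) final. 37° C, 20 h, OD600 read-out.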

S. aureus USA300 = assay: MIC assay, S. aureus USA300; assay type: cell-based, Staphylococcus aureus
Outline: as §1

E. coli imp4213 = assay: MIC assay, E. coli imp4213; assay type: cell-based, Escherichia coli
Outline: as §1

E. coli K12 = assay: Time-kill: colony forming units of E. coli K12 over time; assay type: cell-based, Escherichia coli; conditions: E. coli K12, FIG. 16A
P. aeruginosa = assay type: cell-based, Pseudomonas aeruginosa
Outline: as §1

[1] = system: Enterobacter cloacae, Klebsiella pneumoniae, Acinetobacter baumannii, and Pseudomonas aeruginosa; assay: MIC against wild-type bacterial pathogens (summary over species); assay type: cell-based; conditions: range over the four wild-type pathogens
Protocol: (§2) Bacterial growth conditions. LB or Mueller Hinton II cation-adjusted broth (MHB II, BBL 212322) was prepared according to manufacturer's instructions and supplemented with arabinose at 0.02% for overnight growth or at indicated concentrations in the description of the figures. Bacterial cultures were grown at 37° C. When appropriate, media was supplemented with kanamycin (50 μg/mL), carbenicillin (50 μg/mL), chloramphenicol (12.5 or 25 μg/mL), hygromycin (200 μg/mL), and/or gentamicin (10 μg/mL).
(§3) Peptide sensitivity and MIC assays. Lyophilized peptides (Smartox Biotechnology, CPC Scientific. ABclonal) were solubilized to 10 mM in Tris buffer, pH 8, prior to making a 2-fold dilution series in MHBII cation adjusted broth with highest final assay concentration of 400-800 μM. Bacteria were grown to log phase and added to final OD600˜0.001. The final EDTA concentration was 0.5 mM for E. coli strains and 0.125 mM for USA300. The final volume of 10 μL/well in a 384 well black, clear bottom plate (Corning) was spun <1 min at <250×g and then incubated at 37° C. After 4 h, an equal volume (10 μL) of BacTiter-Glo™ (Promega) was added to each well and luminescence was read after 5 min on an EnVision plate reader (PerkinElmer). […] Plates were incubated at 37° C. for 20 h before measuring OD600 with an EnVision plate reader.

A. baumannii = assay type: cell-based, Acinetobacter baumannii; conditions: for MIC: Table 3, + EDTA (2 mM)
Outline: as §1

E. coli-ATCC 25922 = assay: MIC assay, E. coli ATCC 25922; assay type: cell-based, Escherichia coli; conditions: Table 5; E. coli ATCC 25922, WT with O-antigen
Protocol: as §2, §3

red blood cell = assay: Red blood cell lysis assay; assay type: cell-based; conditions: 50 μM, after 4 hrs, FIG. 16B
E. cloacae = assay: MIC assay, E. cloacae; assay type: cell-based, Enterobacter cloacae
Protocol: as §2, §3

[2] = system: Staphylococcus aureus (USA300); assay: Bacterial growth inhibition, Staphylococcus aureus (USA300); assay type: cell-based; conditions: Gram-positive bacterium lacking LPS
Protocol: as §2, §3

[3] = system: E. coli K-12 (pmrA^G53E and mcr-1); assay: MIC against E. coli K-12 with PMX-resistance determinants (summary); assay type: cell-based, Escherichia coli; conditions: range over pmrA and mcr-1 strains
Protocol: as §2, §3

E. coli pmrA^G53Y = assay: MIC assay, E. coli pmrA^G53Y (BW25113); assay type: cell-based, Escherichia coli; conditions: Table 5; colistin^R
Protocol: as §2, §3

K. pneumoniae = assay type: cell-based, Klebsiella pneumoniae
Outline: as §1

E. coli ΔwaaD pmrB^D149Y = assay: MIC assay, E. coli ΔwaaD pmrB^D149Y; assay type: cell-based, Escherichia coli; conditions: Table 4; + EDTA; PMX-resistant
Protocol: as §2, §3

E. coli + FhuAΔC/Δ4L = assay type: cell-based, Escherichia coli; conditions: Table 2; no EDTA
Excerpt: pFhuAΔC/Δ4L was constructed by synthesizing the fhuA coding sequence lacking the N-terminal cork domain, Δ1-160, and extracellular loops L3, L4, L5, and L11 (Mohammad, et al., J Biol Chem 286, 8000-8013, (2011)).fhuAΔcΔ4L was amplified with primers N3P-105 (encoding the bla constitutive promoter, ribosome binding site, and AUG start codon from pUC19 (New England BioLabs) and N3P-107, and cloning into pACYC184 with BamHI and HindIII (New England BioLabs).
as §2
Peptide sensitivity and MIC assays. […] After 4 h, an equal volume (10 μL) of BacTiter-Glo™ (Promega) was added to each well and luminescence was read after 5 min on an EnVision plate reader (PerkinElmer). […] Plates were incubated at 37° C. for 20 h before measuring OD600 with an EnVision plate reader.

E. coli ΔwaaD = assay: MIC assay, E. coli ΔwaaD; assay type: cell-based, Escherichia coli
Protocol: as §2
(§4) Peptide sensitivity and MIC assays. Lyophilized peptides (Smartox Biotechnology, CPC Scientific. ABclonal) were solubilized to 10 mM in Tris buffer, pH 8, prior to making a 2-fold dilution series in MHBII cation adjusted broth with highest final assay concentration of 400-800 μM. Bacteria were grown to log phase and added to final OD600˜0.001. The final EDTA concentration was 0.5 mM for E. coli strains and 0.125 mM for USA300. The final volume of 10 μL/well in a 384 well black, clear bottom plate (Corning) was spun <1 min at <250×g and then incubated at 37° C. After 4 h, an equal volume (10 μL) of BacTiter-Glo™ (Promega) was added to each well and luminescence was read after 5 min on an EnVision plate reader (PerkinElmer). To measure the minimal inhibitory concentrations (MICs), bacteria from fresh overnight plates or log phase cultures were diluted with or without EDTA and peptides as described above to final OD600˜0.0002. Plates were incubated at 37° C. for 20 h before measuring OD600 with an EnVision plate reader.

E. coli ΔwaaD MCR-1 = assay: MIC assay, E. coli ΔwaaD MCR-1; assay type: cell-based, Escherichia coli; conditions: Table 4; + EDTA; PMX-resistant
Protocol: as §2, §4

wild-type E. coli strain = assay: Bacterial growth inhibition, wild-type E. coli strain; assay type: cell-based, Escherichia coli
Protocol: as §2, §3

[4] = Biolayer interferometry: captured biotinylated LAB peptides binding to LPS (KDO2-lipid A)
Protocol: (§5) Biolayer interferometry. Phospholipid (Avanti polar lipids) and KDO2-lipid A (US Biological Life Sciences) stock solutions were prepared by resuspension into 25 mM Tris pH 8, 100 mM NaCl, 0.05% LMNG buffer and solubilized overnight at 4° C. Lipid stocks were diluted prior to experiments into 25 mM Tris pH 8, 100 mM NaCl, 0.5 mg/mL BSA, 0.05% LMNG. All assays were performed at 25° C. in 25 mM Tris pH 8, 100 mM NaCl, 0.5 mg/mL BSA, 0.05% LMNG. Biotinylated-LAB peptides were loaded onto SA biosensors to a response of approximately 0.5 nm. Binding to phospholipids and KDO2-lipid A was measured at concentrations of 150, 100, 50, 25, and 10 μM with 300s association and dissociation steps. Assays were performed in triplicate on an Octet Red384 (ForteBio) and buffer and lipid signals were subtracted by using a biotin-blocked reference streptavidin (SA) biosensor. Dissociation constants for LABWT and LABWT+, interactions with KDO2-lipidA were estimated by plotting response values at equilibrium as a function of concentration and fit to a global specific binding with Hill slope model in Prism (Graphpad Software).
Based on the intriguing chemical characteristics of the LPS-PbgA interface, the possibility that a linear peptide derived from PbgA might selectively bind to LPS in vitro was considered. A peptide encompassing the lipid A-binding (LAB)-motif (209SYPMTARRFLEKHGLLD225; SEQ ID NO: 67) with an additional Gly-Ser-linker and biotin modification was generated and used in an interferometry-based assay. […] Two peptides intended to destabilize essential lipid A binding determinants were tested as controls.

[5] = Biolayer interferometry: captured biotinylated LAB peptides binding to phospholipids; design: species or system E. coli; conditions: above background
Protocol: as §5
Based on the intriguing chemical characteristics of the LPS-PbgA interface, the possibility that a linear peptide derived from PbgA might selectively bind to LPS in vitro was considered. […]

E. coli = assay: Cell growth inhibition assay with or without EDTA; assay type: cell-based, Escherichia coli; conditions: irrespective of the presence or absence of EDTA (0.5 mM)
Protocol: as §4
It was reasoned that the relatively large molecular weight (>2 kDa) and limited α-helical propensity of the linear LABWT peptide (SEQ ID NO: 1) might limit its access to LPS in the bacterial OM. […]

Question: Which MICs (E. coli BW25113; Table 5, E. coli K-12 (BW25113), WT) does the source give for CSCC[C@H](NC(=O)[C@@H]1CCCN1C(=O)[C@H](Cc1ccc(O)cc1)NC(C)=O)C(=O)N[C@@H](CN)C(=O)N[C@@H](Cc1ccccc1)C(=O)N[C@@H](CCCNC(=N)N)C(=O)N[C@@H](CCCNC(=N)N)C(=O)N[C@@H](Cc1ccccc1)C(=O)N[C@@H](CC(C)C)C(=O)N[C@@H](CCC(=O)O)C(=O)N[C@@H](CCCCN)C(=O)N[C@@H](Cc1c[nH]c2ccccc12)C(=O)NCC(=O)N[C@@H](CC(C)C)C(=O)N[C@@H](CC(C)C)C(=O)N[C@@H](CCCNC(=N)N)C(N)=O [SEQ ID NO: 69, YPM(Dap)FRRFLEKWGLLR] (Ac-YPM[Dap]FRRFLEKWGLLR-NH2) here?
Answer: 25 µM

Question: What about the MICs (E. coli mcr-1) of the same compound?
Answer: 25 µM

Question: What about the MICs (S. aureus USA300; Table 5, USA300 Gram-positive control) of the same compound?
Answer: 400 µM

Question: What about the MICs (E. coli imp4213; Table 5, permeable) of the same compound?
Answer: 6.25 µM

Question: And the “time-kill kinetics (CFUs over time)” value (E. coli K12)?
Answer: bactericidal

Question: And the MICs (P. aeruginosa; Table 5, PA-14, WT)?
Answer: 200 µM

Question: What about the MICs [1] of the same compound?
Answer: 12.5 to 200 µM

Question: And the MICs (A. baumannii; Table 5, ATCC 19606, WT)?
Answer: 12.5 µM

Question: What about the MICs (E. coli-ATCC 25922) of the same compound?
Answer: 50 µM

Question: What about the “red blood cell lysis” value (red blood cell) of the same compound?
Answer: no observe lysis

Question: And the MICs (E. cloacae; Table 5, ATCC 222, WT)?
Answer: 12.5 µM

Question: And the growth inhibition [2]?
Answer: impacted only at very high concentrations

Question: And the MICs [3]?
Answer: 12.5 to 25 µM

Question: What about the MICs (E. coli pmrA^G53Y) of the same compound?
Answer: 12.5 µM

Question: And the MICs (K. pneumoniae; Table 5, ATCC 43816, WT)?
Answer: 100 µM

Question: For “Ac-SYPMTARRFLEKWGLLR-NH2 [SEQ ID NO: 68, SYPMTARRFLEKWGLLR]”, which MIC (E. coli BW25113; + 0.5 mM EDTA) is on record?
Answer: 200 µM

Question: What about the MIC (E. coli BW25113; wild-type strain, no EDTA) of the same compound?
Answer: >800 µM

Question: And the MIC (S. aureus USA300; Table 2, Gram-positive wild-type strain)?
Answer: >800 µM

Question: And the MIC (E. coli ΔwaaD pmrB^D149Y)?
Answer: 100 µM

Question: And the MIC (E. coli imp4213; Table 2, no EDTA)?
Answer: 25 µM

Question: And the MIC (P. aeruginosa; Table 3, + EDTA (2 mM))?
Answer: 400 µM

Question: And the MIC (E. coli + FhuAΔC/Δ4L)?
Answer: 50 µM

Question: What about the MIC (E. coli ΔwaaD; Table 2, no EDTA) of the same compound?
Answer: 400 µM

Question: And the MIC (E. coli ΔwaaD; Table 4, + EDTA)?
Answer: 100 µM

Question: And the MIC (A. baumannii)?
Answer: 400 µM

Question: And the MIC (A. baumannii; listed as LABWT+)?
Answer: 200 µM

Question: And the MIC (E. coli ΔwaaD MCR-1)?
Answer: 100 µM

Question: What about the growth inhibition (wild-type E. coli strain) of the same compound?
Answer: failed to inhibit the growth

Question: And the “improved affinity towards LPS” value ([4]; LABWT+ relative to LABWT)?
Answer: ~1.5 fold

Question: And the Kd ([4]; LPS (KDO2-lipid A), biotinylated peptide on SA biosensor, 25° C., estimated from equilibrium responses)?
Answer: ~55 µM

Question: And the “selective binding to LPS over PLs” value ([4]; versus the major PLs found in E. coli)?
Answer: maintaining selectivity over PL binding

Question: And the MIC (E. cloacae; Table 3, + EDTA (2 mM))?
Answer: 100 µM

Question: And the MIC (K. pneumoniae; Table 3, + EDTA (2 mM))?
Answer: >400 µM

Question: Which results are given for “GSSYPMDARRFLEKHGLLD (Ac-GSSYPMDARRFLEKHGLLD-NH2) [SEQ ID NO: 3]”?
Answer: binding to PLs [5]: Neither a peptide lacking the α7 helix (LABΔα7; SEQ ID NO: 2) nor a peptide containing the T213D mutation equivalent (LABT213D; SEQ ID NO: 3) showed detectable binding to LPS or PLs above background; effect on bacterial cell growth (E. coli): showed no effect on bacterial cell growth; binding to LPS ([4]; interferometry, above background, listed as LABT213D): Neither a peptide lacking the α7 helix (LABΔα7; SEQ ID NO: 2) nor a peptide containing the T213D mutation equivalent (LABT213D; SEQ ID NO: 3) showed detectable binding to LPS or PLs above background; also recorded: failed to bind LPS in vitro
